Data from ChEMBL document CHEMBL1121395, “[5-(N4,N4-Dimethylasparagine),8-lysine]vasopressin: the first 5-position neurohypophyseal hormone analogue to retain to retain significant antidiuretic potency” (1980).

Experiments:
Rattus norvegicus [1] = organism: Rattus norvegicus; test: In vitro uterotonic potency of compound was determined in rat; assay type: functional
Gallus gallus = organism: Gallus gallus; test: Avian vasodepressor potency of compound was determined
Rattus norvegicus [2] = test: In vivo antidiuretic potency of compound was determined in rat
Rattus norvegicus [3] = organism: Rattus norvegicus; test: Pressor potency of compound was determined in rat; assay type: functional

| Structure (SMILES) | Activity (Rattus norvegicus [1]) | Activity (Gallus gallus) | Activity (Rattus norvegicus [2]) | Activity (Rattus norvegicus [3]) |
| --- | --- | --- | --- | --- |
| CN(C)C(=O)C[C@@H]1NC(=O)[C@H](CCC(N)=O)NC(=O)[C@H](Cc2ccccc2)NC(=O)[C@H](Cc2ccc(O)cc2)NC(=O)[C@@H](N)CSSC[C@@H](C(=O)N2CCC[C@H]2C(=O)N[C@@H](CCCCN)C(=O)NCC(N)=O)NC1=O | < 0.05 mg | 0.39 mg | 5.5 mg | 2.55 mg |
| NCCCC[C@H](NC(=O)[C@@H]1CCCN1C(=O)[C@@H]1CSSC[C@H](N)C(=O)N[C@@H](Cc2ccc(O)cc2)C(=O)N[C@@H](Cc2ccccc2)C(=O)N[C@@H](CCC(N)=O)C(=O)N[C@@H](CC(N)=O)C(=O)N1)C(=O)NCC(N)=O |  |  | 203 mg |  |
